Data from patent US11006631B2, “Substituted pyrimidinyloxy pyridine derivatives as herbicides” (FMC Corporation, priority 2015, dated 2021).

Key:
Assay type in all cases: in vivo
[1] = tested on: velvetleaf (Abutilon theophrasti); experiment: Test A postemergence, velvetleaf; conditions: 0 to 100 scale
Text: (§1) Seeds of plant species selected from bamyardgrass (Echinochloa crus-galli), kochia (Kochia scoparia), ragweed (common ragweed, Ambrosia elatior), ryegrass, Italian (Italian ryegrass, Lolium multiflorum), foxtail, giant (giant foxtail, Setaria faberii), pigweed (Amaranthus retroflexus), crabgrass, large (large crabgrass, Digitaria sanguinalis), momingglory (Ipomoea spp.), velvetleaf (Abutilon theophrasti), wheat (Triticum aestivum), and corn (Zea mays) were planted into a blend of loam soil and sand and treated preemergence with a directed soil spray using test chemicals formulated in a non-phytotoxic solvent mixture which included a surfactant. At the same time, plants selected from these crop and weed species and also blackgrass (Alopecurus myosuroides), and galium (catchweed bedstraw, Galium aparine) were planted in pots containing the same blend of loam soil and sand and treated with postemergence applications of test chemicals formulated in the same manner. Plants ranged in height from 2 to 10 cm and were in the one- to two-leaf stage for the postemergence treatment. Treated plants and untreated controls were maintained in a greenhouse for approximately 10 days, after which time all treated plants were compared to untreated controls and visually evaluated for injury. Plant response ratings, summarized in Table A, are based on a 0 to 100 scale where 0 is no effect and 100 is complete control. A dash (-) response means no test result.

[2] = tested on: sedge, umbrella (small-flower umbrella sedge, Cyperus difformis); experiment: Test B flooded paddy test, sedge, umbrella; conditions: Flood, 250 g ai/ha; scale of 0 to 100
How it was run: (§2)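 Paddy-water application at a 3 cm flood, young plants having two leaves. Water level maintained; greenhouse, 13–15 days; visual 0–100 control rating.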

[3] = tested on: crabgrass, large (large crabgrass, Digitaria sanguinalis); experiment: Test A preemergence, crabgrass, large; conditions: 0 to 100 scale
Text: as §1

[4] = tested on: ducksalad (Heteranthera limosa); experiment: Test B flooded paddy test, ducksalad; conditions: Flood, 250 g ai/ha; scale of 0 to 100
How it was run: as §2

[5] = tested on: barnyardgrass (Echinochloa crus-galli); experiment: Test A preemergence, barnyardgrass; conditions: 0 to 100 scale
How it was run: (§3)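 Greenhouse pot test, loam + sand. Preemergence = soil spray at sowing; postemergence = foliar spray, 1–2 leaf stage, 2–10 cm tall. ~10 d, then visual injury vs untreated, 0–100.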

[6] = tested on: barnyardgrass (Echinochloa crus-galli); experiment: Test B flooded paddy test, barnyardgrass; conditions: Flood, 250 g ai/ha; scale of 0 to 100
How it was run: as §2

[7] = tested on: foxtail, giant (giant foxtail, Setaria faberii); experiment: Test A postemergence, foxtail, giant; conditions: 0 to 100 scale
How it was run: as §3

[8] = tested on: wheat (Triticum aestivum); experiment: Test A postemergence, wheat; conditions: 0 to 100 scale
How it was run: as §3

[9] = tested on: pigweed (Amaranthus retroflexus); experiment: Test A preemergence, pigweed; conditions: 0 to 100 scale
How it was run: as §3

[10] = tested on: foxtail, giant (giant foxtail, Setaria faberii); experiment: Test A preemergence, foxtail, giant; conditions: 0 to 100 scale
How it was run: as §3

rice (Oryza sativa) = experiment: Test B flooded paddy test, rice; conditions: Flood, 250 g ai/ha; scale of 0 to 100
How it was run: as §2

[11] = tested on: morningglory (Ipomoea spp.); experiment: Test A preemergence, morningglory; conditions: 0 to 100 scale
Text: as §1

[12] = tested on: barnyardgrass (Echinochloa crus-galli); experiment: Test A postemergence, barnyardgrass; conditions: 0 to 100 scale
How it was run: as §3

[13] = tested on: wheat (Triticum aestivum); experiment: Test A preemergence, wheat; conditions: 0 to 100 scale
Text: as §1

corn (Zea mays) [14] = experiment: Test A postemergence, corn; conditions: 0 to 100 scale
How it was run: as §3

[15] = tested on: crabgrass, large (large crabgrass, Digitaria sanguinalis); experiment: Test A postemergence, crabgrass, large; conditions: 0 to 100 scale
Text: as §1

[16] = tested on: velvetleaf (Abutilon theophrasti); experiment: Test A preemergence, velvetleaf; conditions: 0 to 100 scale
Text: as §1

[17] = tested on: morningglory (Ipomoea spp.); experiment: Test A postemergence, morningglory; conditions: 0 to 100 scale
Text: as §1

corn (Zea mays) [18] = experiment: Test A preemergence, corn; conditions: 0 to 100 scale
Text: as §1

[19] = tested on: pigweed (Amaranthus retroflexus); experiment: Test A postemergence, pigweed; conditions: 0 to 100 scale
How it was run: as §3

Row | SMILES | Plant response rating, Velvetleaf ([1]; 125 g ai/ha) | Plant response rating, Velvetleaf ([1]; 500 g ai/ha) | Plant response rating, Sedge, Umbrella [2] | Plant response rating, Crabgrass, Large ([3]; 500 g ai/ha) | Plant response rating, Ducksalad [4] | Plant response rating, Barnyardgrass ([5]; 125 g ai/ha) | Plant response rating, Barnyardgrass ([5]; 500 g ai/ha) | Plant response rating, Barnyardgrass [6] | Plant response rating, Foxtail, Giant ([7]; 125 g ai/ha) | Plant response rating, Foxtail, Giant ([7]; 500 g ai/ha) | Plant response rating, Wheat ([8]; 125 g ai/ha) | Plant response rating, Wheat ([8]; 500 g ai/ha) | Plant response rating, Pigweed ([9]; 125 g ai/ha) | Plant response rating, Pigweed ([9]; 500 g ai/ha) | Plant response rating, Foxtail, Giant ([10]; 125 g ai/ha) | Plant response rating, Foxtail, Giant ([10]; 500 g ai/ha) | Plant response rating, Rice (rice (Oryza sativa)) | Plant response rating, Morningglory ([11]; 500 g ai/ha) | Plant response rating, Barnyardgrass ([12]; 125 g ai/ha) | Plant response rating, Barnyardgrass ([12]; 500 g ai/ha) | also measured
1 | Clc1cnc(Oc2cccnc2-n2cc(Cl)cn2)nc1 [Compound 2, 5-chloro-2-[[2-(4-chloro-1H-pyrazol-1-yl)-3-pyridinyl]oxy]pyrimidine] | 20 | 70 | 75 | 100 | 80 | 0 | 40 | 0 | 0 | 30 | 10 | 20 | 70 | 90 | 10 | 80 | 0 | 0 | 0 | 20 | Plant response rating, Morningglory ([11]; 125 g ai/ha): 0; Plant response rating, Wheat ([13]; 125 g ai/ha): 0; Plant response rating, Wheat ([13]; 500 g ai/ha): 10; Plant response rating, Corn (corn (Zea mays) [14]; 125 g ai/ha): 0; Plant response rating, Corn (corn (Zea mays) [14]; 500 g ai/ha): 10; Plant response rating, Crabgrass, Large ([15]; 125 g ai/ha): 10; Plant response rating, Crabgrass, Large ([15]; 500 g ai/ha): 40; Plant response rating, Velvetleaf ([16]; 125 g ai/ha): 10; Plant response rating, Velvetleaf ([16]; 500 g ai/ha): 30; Plant response rating, Morningglory ([17]; 125 g ai/ha): 40; Plant response rating, Morningglory ([17]; 500 g ai/ha): 80; Plant response rating, Corn (corn (Zea mays) [18]; 125 g ai/ha): 0; Plant response rating, Corn (corn (Zea mays) [18]; 500 g ai/ha): 0; Plant response rating, Pigweed ([19]; 125 g ai/ha): 100; Plant response rating, Pigweed ([19]; 500 g ai/ha): 100
2 | Cc1cnn(-c2ncccc2Oc2ncc(Cl)cn2)c1 [Compound 3] | 10 | 20 | 60 | 0 | 0 | 0 | 0 | 0 | 0 | 10 | 10 | 10 | 0 | 10 | 0 | 0 | 0 | 0 | 0 | 10 | Plant response rating, Crabgrass, Large ([3]; 125 g ai/ha): 0; Plant response rating, Morningglory ([11]; 125 g ai/ha): 0; Plant response rating, Wheat ([13]; 125 g ai/ha): 0; Plant response rating, Wheat ([13]; 500 g ai/ha): 0; Plant response rating, Corn (corn (Zea mays) [14]; 125 g ai/ha): 0; Plant response rating, Corn (corn (Zea mays) [14]; 500 g ai/ha): 10; Plant response rating, Crabgrass, Large ([15]; 125 g ai/ha): 10; Plant response rating, Crabgrass, Large ([15]; 500 g ai/ha): 10; Plant response rating, Velvetleaf ([16]; 125 g ai/ha): 0; Plant response rating, Velvetleaf ([16]; 500 g ai/ha): 0; Plant response rating, Morningglory ([17]; 125 g ai/ha): 20; Plant response rating, Morningglory ([17]; 500 g ai/ha): 30; Plant response rating, Corn (corn (Zea mays) [18]; 125 g ai/ha): 0; Plant response rating, Corn (corn (Zea mays) [18]; 500 g ai/ha): 0; Plant response rating, Pigweed ([19]; 125 g ai/ha): 10; Plant response rating, Pigweed ([19]; 500 g ai/ha): 40
3 | Clc1cnc(Oc2cccnc2-n2cc(Br)cn2)nc1 [Compound 1, 2-[[2-(4-bromo-1H-pyrazol-1-yl)-3-pyridinyl]oxy]-5-chloropyrimidine] | 20 | 50 | 50 | 100 | 60 | 10 | 50 | 0 | 10 | 30 | 10 | 20 | 50 | 90 | 20 | 80 | 0 | 0 | 0 | 10 | Plant response rating, Crabgrass, Large ([3]; 125 g ai/ha): 40; Plant response rating, Wheat ([13]; 125 g ai/ha): 0; Plant response rating, Wheat ([13]; 500 g ai/ha): 10; Plant response rating, Corn (corn (Zea mays) [14]; 125 g ai/ha): 10; Plant response rating, Corn (corn (Zea mays) [14]; 500 g ai/ha): 20; Plant response rating, Crabgrass, Large ([15]; 125 g ai/ha): 10; Plant response rating, Crabgrass, Large ([15]; 500 g ai/ha): 50; Plant response rating, Velvetleaf ([16]; 125 g ai/ha): 10; Plant response rating, Velvetleaf ([16]; 500 g ai/ha): 30; Plant response rating, Morningglory ([17]; 125 g ai/ha): 10; Plant response rating, Morningglory ([17]; 500 g ai/ha): 80; Plant response rating, Corn (corn (Zea mays) [18]; 125 g ai/ha): 0; Plant response rating, Corn (corn (Zea mays) [18]; 500 g ai/ha): 0; Plant response rating, Pigweed ([19]; 125 g ai/ha): 90; Plant response rating, Pigweed ([19]; 500 g ai/ha): 100
